Test results: PMC6152192, “Novel Methylselenoesters as Antiproliferative Agents” (Molecules : A Journal of Synthetic Chemistry and Natural …, 2017)
Values joined by “and” are separate entries in the source; they are usually repeats but may differ in a detail not shown here. Equal entries are not always repeated.

What was measured:
Type in all cases: cell-based
[1] = system: PC-3 (prostate adenocarcinoma); assay: MTT viability assay, PC-3; details: PC-3, 72 h, MTT; for CC50: read-out: LC50 (the source's name)
Description: (§1) The novel compounds were tested against a panel of different cancer lines: PC-3 (prostate adenocarcinoma), MCF7 (mammary adenocarcinoma), HTB-54 (lung carcinoma), K-562 (chronic myelogenous leukemia) and HT-29 (colorectal adenocarcinoma). Two non-malignant cell lines, BEAS-2B (bronchial epithelial) and 184B5 (mammary epithelial) were also included to evaluate the toxicity of the novel synthesized compounds. The antiproliferative activity was measured with the [3-(4,5-dimethylthiazol-2-yl)-2,5-diphenyltetrazolium bromide] (MTT) assay after 72 h treatment. Six concentrations ranging from 0.1 to 100 μM were tested. MSA is largely known as the main CH3SeH putative precursor and was therefore included as positive control. The following parameters were calculated: GI50 (concentration which reduces the growth by 50%), TGI (concentration completely inhibiting growth) and LC50 (concentration that kills 50% of the cells).
(§2) All cells were purchased from the American Type Culture Collection (ATCC, Barcelona, Spain). HT-29 (colorectal adenocarcinoma), HTB-54 (grade III lung carcinoma), MCF7 (mammary adenocarcinoma), PC-3 (grade IV prostate adenocarcinoma) and K-562 (chronic myelogenous leukemia) were cultured in RPMI (Gibco, Madrid, Spain), 10% FBS (Gibco), 100 units/mL penicillin and 100 μg/mL streptomycin (Gibco). BEAS-2B cell line (normal epithelial lung) was cultured in DMEM (Gibco), 10% FBS, 100 units/mL penicillin and 100 μg/mL streptomycin. 184B5 (normal mammary gland) cell line was cultured in DMEM:F12 supplemented with 5% FBS, 1 × ITS (Lonza, Barcelona, Spain), 100 nM hydrocortisone (Sigma-Aldrich), 2 mM sodium pyruvate (Lonza), 20 ng/mL EGF (Sigma-Aldrich), 0.3 nM trans-retinoic acid (Sigma-Aldrich), 100 units/mL penicillin and 100 µg/mL streptomycin. Cells were cultured at 37 °C under 5% CO2.
(§3) Cell viability after treatment was assessed by the well-known 3-(4,5-dimethyl-thiazol-2-yl)-2,5-diphenyltetrazolium bromide (MTT, Sigma-Aldrich) assay. Briefly, 10,000 cells were seeded in 96-well plates, treated and incubated for 72 h. Dilutions of the compounds in cell medium were freshly prepared from a 0.01 M stock in DMSO. After treatment, 50 μL of MTT solution in PBS (2 mg/mL) were added and cells were incubated for 4 h. Medium was removed and 150 μL of DMSO was added to dissolve the formed formazan crystals. Absorbance was read at 550 nm in a microplate absorbance reader (Sunrise, Tecan, Männedorf, Switzerland).

[2] = system: MCF7 (mammary adenocarcinoma); assay: MTT viability assay, MCF7; details: MCF7, 72 h, MTT; for CC50: read-out: LC50 (the source's name)
Description: as §1, §2, §3

[3] = system: 184B5 (non-malignant mammary epithelium); assay: MTT viability assay, 184B5; details: 184B5 non-malignant, 72 h, MTT; for CC50: read-out: LC50 (the source's name)
Description: as §1, §2, §3

[4] = system: K-562 (chronic myelogenous leukemia); assay: MTT viability assay, K-562; details: K-562, 72 h, MTT; for CC50: read-out: LC50 (the source's name)
Description: as §1, §2, §3

[5] = system: HT-29 (colorectal adenocarcinoma); assay: MTT viability assay, HT-29; details: HT-29, 72 h, MTT; for CC50: read-out: LC50 (the source's name)
Description: as §1, §2, §3

[6] = system: HTB-54 (lung carcinoma); assay: MTT viability assay, HTB-54; details: HTB-54, 72 h, MTT; for CC50: read-out: LC50 (the source's name)
Description: as §1, §2, §3

[7] = system: BEAS-2B (non-malignant bronchial epithelial); assay: MTT viability assay, BEAS-2B; details: BEAS-2B non-malignant, 72 h, MTT; for CC50: read-out: LC50 (the source's name)
Description: as §1, §2, §3

Row | Substance | GI50 [1] | TGI [1] [µM] | CC50 [1] [µM] | GI50 [2] [µM] | TGI [2] [µM] | CC50 [2] [µM] | GI50 [3] [µM] | TGI [3] [µM] | CC50 [3] [µM] | GI50 [4] [µM] | TGI [4] [µM] | CC50 [4] [µM] | GI50 [5] [µM] | TGI [5] [µM] | CC50 [5] [µM] | GI50 [6] | CC50 [6] [µM] | GI50 [7] [µM] | TGI [7] [µM] | CC50 [7] [µM] | also measured
1 | Dimethyl 5-cyano-1,3-benzenedicarboselenoate [Compound 14] | 7.2 ± 3.5 µM | 32.3 ± 3.7 | 68.7 ± 3 | 4.9 ± 0.8 | 8.4 ± 1.1 | 54.4 ± 2.7 | 3.8 ± 0.7 | 6.5 ± 0.6 | 9.3 ± 0.7 | 29.9 ± 0.6 | 54.7 ± 0.7 | 79.5 ± 0.7 | 3.8 ± 0.1 | 7.9 ± 0.7 | > 100 | 3.8 ± 0.6 µM | 66.5 ± 4.5 | 3.2 ± 0.7 | 5.5 ± 0.5 | 7.8 ± 0.3 | 
2 | Methyl 1,3-benzodioxole-5-carboselenoate [Compound 8] | 5.7 ± 1.6 µM | 11.0 ± 3.1 | 96 ± 4.7 | 4.6 ± 0.5 | 9.2 ± 1.3 | 68.7 ± 2.5 | 3.7 ± 0.3 | 6.4 ± 0.2 | 9 ± 0.4 | 29.7 ± 4.7 | 62.6 ± 3.9 | 95.4 ± 4.9 | 5.9 ± 0.8 | 27.7 ± 4.5 | 81.1 ± 4 | 6 ± 0.9 µM | 77.1 ± 4.9 | 3.1 ± 0.3 | 5.6 ± 0.6 | 8 ± 1.1 | TGI [6]: 23.2 ± 2.6 µM
3 | Methyl 2-(4-pyridyl)thiazole-4-carboselenoate [Compound 12] | > 10 µM and 16.9 µM | 50.9 ± 4.9 | 85 ± 4.7 | 4.4 ± 1 | 8.1 ± 1.7 | 56.2 ± 9.6 | 3.4 ± 0.3 | 6.5 ± 0.8 | 9.6 ± 2.8 | 82 ± 4.4 | >100 | > 100 | 5.1 ± 0.1 | 14.2 ± 6.6 | > 100 | 9.8 ± 5.1 µM | 80.5 ± 3.5 | 3.7 ± 1.3 | 6.4 ± 1.3 | 9.2 ± 1 | TGI [6]: 44.9 ± 3.7 µM
4 | Methyl 2-phenyl-4-quinolinecarboselenoate [Compound 10] | 4.4 ± 1.3 µM |  | 70.9 ± 5.2 | 5.6 ± 1.3 | 51.3 ± 3.7 | > 100 | 3.9 ± 0.7 | 6.3 ± 0.5 | 8.7 ± 0.4 | 9.7 ± 4.9 | 59.1 ± 3.5 | > 100 | 4.1 ± 0.3 | 7.5 ± 0.7 | 35 ± 2.4 | 5.9 ± 1.1 µM | 64.4 ± 4.2 | 3.1 ± 0.5 | 5.5 ± 0.4 | 7.8 ± 0.5 | TGI [6]: 16.7 ± 2.3 µM
5 | Methyl 2-thiophencarboselenoate [Compound 4] | 5.2 ± 0.9 µM | 19.4 ± 3.6 | 62 ± 4.9 | 5.3 ± 1.4 | 22.8 ± 3.8 | 89.6 ± 4.1 | 3.6 ± 0.8 | 7.2 ± 1.4 | 27.9 ± 4.6 | 40.6 ± 4.5 | 74.6 ± 4.9 | > 100 | 3.4 ± 0.2 | 7.2 ± 1.2 | 47.5 ± 3.2 | 8.5 ± 3.1 µM | 73.9 ± 4.1 | 2.9 ± 0.3 | 5.8 ± 0.7 | 8.7 ± 2.1 | TGI [6]: 39.0 ± 3.1 µM
6 | Methyl 4-methoxybenzoselenoate [Compound 2] | 7.3 ± 1.7 µM | 45.1 ± 4.5 | > 100 | 4.1 ± 0.8 | 9.3 ± 4.1 | 74.8 ± 4 | 3.7 ± 0.8 | 6.4 ± 1.5 | 9 ± 2.1 | 40.8 ± 4.8 | 70.6 ± 5.9 | > 100 | 4.1 ± 0.1 | 7.5 ± 1.1 | 50 ± 2.4 | 6.8 ± 1.7 µM | 70 ± 2.9 | 3.2 ± 0.5 | 5.8 ± 0.6 | 8.4 ± 1 | TGI [6]: 29.7 ± 4.3 µM
7 | Methyl 9-acridinecarboselenoate [Compound 13] |  | >100 | > 100 | 4.2 ± 1.8 | 35.4 ± 4.7 | 83.4 ± 4.1 | 6.6 ± 1.2 | 26.8 ± 1.0 | 65 ± 4.5 |  |  |  | 6 ± 0.5 | 16.5 ± 1.9 | 66.6 ± 0.1 |  |  | 3.8 ± 0.1 | 6.4 ± 0.2 | 8.9 ± 0.4 | 
8 | Methyl benzo[b]thiophene-2-carboselenoate [Compound 7] | > 10 µM and 18.4 µM | 47.8 ± 3.9 | 77.3 ± 4.5 | 6.9 ± 1.4 | 61.6 ± 4.1 | > 100 | 3.9 ± 1.2 | 6.9 ± 1.7 | 9.9 ± 0.8 | 29.2 ± 4.4 | 58.8 ± 1.5 | 88.3 ± 3.3 | 3.7 ± 0.2 | 7.4 ± 0.9 | 41.8 ± 4.5 | > 10 µM and 17.5 µM | 93.4 ± 4.8 | 3.9 ± 0.6 | 6.8 ± 0.8 | 9.8 ± 1.1 | TGI [6]: 55.4 ± 4.4 µM
